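Five concentrations, 48 hours, 96-well plates. GI50: concentration for 50% inhibition of growth. TGI: concentration producing complete growth inhibition.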
Columns and labels:
Experiment in all cases: growth of human tumour cells (NCI), 48 h
PC-3 prostate = test system: PC-3 prostate
K-562 leukemia = test system: K-562 leukemia
UACC-257 melanoma = test system: UACC-257 melanoma
NCI-H460 lung = test system: NCI-H460 lung
HT29 colon = test system: HT29 colon
OVCAR-5 ovarian = test system: OVCAR-5 ovarian
A549 NSCLC = test system: A549 NSCLC
CCRF-CEM leukemia = test system: CCRF-CEM leukemia
NCI-H226 lung = test system: NCI-H226 lung
KM20L2 colon = test system: KM20L2 colon
SNB-78 CNS = test system: SNB-78 CNS

## COC(=O)C1CC23C4=C(CCC41)CCC1CN4CC(C)C(CC(OC(C)=O)C12COC(C)=O)C43O (stereo not given)
PC-3 prostate
  TGI: > 100 µM
K-562 leukemia
  TGI: > 100 µM
UACC-257 melanoma
  TGI: > 100 µM
NCI-H460 lung
  TGI: > 100 µM
HT29 colon
  TGI: > 100 µM
OVCAR-5 ovarian
  TGI: > 100 µM
A549 NSCLC
  TGI: > 100 µM
CCRF-CEM leukemia
  TGI: > 100 µM

## O/C(=C\c1nc2ccccc2nc1/C=C(\O)c1ccc(F)cc1)c1ccc(F)cc1
PC-3 prostate
  TGI: > 100 µM
K-562 leukemia
  TGI: > 100 µM
UACC-257 melanoma
  TGI: > 100 µM
NCI-H226 lung
  TGI: > 100 µM
NCI-H460 lung
  TGI: > 100 µM
HT29 colon
  TGI: > 100 µM
OVCAR-5 ovarian
  TGI: > 100 µM
A549 NSCLC
  TGI: > 100 µM
CCRF-CEM leukemia
  TGI: > 100 µM

## Cn1c2[n+](c3nc(N)[nH]c(=O)c31)C1OC(C2)C(O)C1O (stereo not given)
K-562 leukemia
  TGI: > 100 µM
UACC-257 melanoma
  TGI: > 100 µM
NCI-H226 lung
  TGI: > 100 µM
KM20L2 colon
  TGI: > 100 µM
SNB-78 CNS
  TGI: > 100 µM
HT29 colon
  TGI: > 100 µM
OVCAR-5 ovarian
  TGI: > 100 µM
A549 NSCLC
  TGI: > 100 µM
CCRF-CEM leukemia
  TGI: > 100 µM

## Cc1ccc2nc(-c3ccc(NC(=O)c4ccc(N)cc4)c(S(=O)(=O)O)c3)sc2c1
PC-3 prostate
  TGI: > 100 µM
K-562 leukemia
  TGI: > 100 µM
UACC-257 melanoma
  TGI: > 100 µM
NCI-H226 lung
  TGI: > 100 µM
NCI-H460 lung
  TGI: > 100 µM
HT29 colon
  TGI: > 100 µM
OVCAR-5 ovarian
  TGI: > 100 µM
A549 NSCLC
  TGI: > 100 µM
CCRF-CEM leukemia
  TGI: > 100 µM

## O=C(Nc1ccc(-n2ccc3c(NC(=O)c4ccccc4)nccc32)cc1)Nc1cccc(C(F)(F)F)c1
PC-3 prostate
  GI50: 1.8 µM
  TGI: 8.56 µM
K-562 leukemia
  GI50: 2.68 µM
  TGI: 10.5 µM
UACC-257 melanoma
  GI50: 11.2 µM
  TGI: 26 µM
NCI-H226 lung
  GI50: 14.3 µM
  TGI: 29.8 µM
NCI-H460 lung
  GI50: 2.74 µM
  TGI: 13.4 µM
HT29 colon
  GI50: 1.85 µM
  TGI: 4.93 µM
OVCAR-5 ovarian
  GI50: 8.72 µM
  TGI: 22.2 µM
A549 NSCLC
  GI50: 3.25 µM
  TGI: 10.9 µM
CCRF-CEM leukemia
  GI50: 1.27 µM
  TGI: 5.55 µM

## CCOCC(=O)N(C)c1cccc2c3c(n(C)c12)CCCCC3
K-562 leukemia
  TGI: > 100 µM
UACC-257 melanoma
  TGI: > 100 µM
NCI-H226 lung
  TGI: > 100 µM
NCI-H460 lung
  TGI: > 100 µM
KM20L2 colon
  TGI: > 100 µM
SNB-78 CNS
  TGI: > 100 µM
HT29 colon
  TGI: > 100 µM
OVCAR-5 ovarian
  TGI: > 100 µM
A549 NSCLC
  TGI: > 100 µM
CCRF-CEM leukemia
  TGI: > 100 µM

## CS(C)(=O)=Nn1c(=O)n2n(c1=O)C1c3ccccc3C2c2ccccc21
PC-3 prostate
  TGI: > 100 µM
K-562 leukemia
  TGI: > 100 µM
UACC-257 melanoma
  TGI: > 100 µM
NCI-H460 lung
  TGI: > 100 µM
HT29 colon
  TGI: > 100 µM
OVCAR-5 ovarian
  TGI: > 100 µM
A549 NSCLC
  TGI: > 100 µM
CCRF-CEM leukemia
  TGI: > 100 µM

## N#Cc1ccccc1C#C/C=C\C#Cc1ccccc1N
PC-3 prostate
  GI50: 5.99 µM
  TGI: > 75.9 µM
K-562 leukemia
  GI50: 4.12 µM
  TGI: > 100 µM
UACC-257 melanoma
  TGI: > 22.8 µM
NCI-H226 lung
  GI50: 6.6 µM
  TGI: > 38.5 µM
NCI-H460 lung
  GI50: 5.43 µM
  TGI: > 100 µM
HT29 colon
  GI50: 4.38 µM
  TGI: > 100 µM
OVCAR-5 ovarian
  GI50: 5 µM
  TGI: > 62.6 µM
A549 NSCLC
  GI50: 6.95 µM
  TGI: > 100 µM
CCRF-CEM leukemia
  GI50: 1.6 µM
  TGI: > 100 µM

## O=C1/C(=C/c2[nH]ncc2-c2ccc(Cl)cc2)C(=O)N(c2ccccc2)C1c1ccccc1 (stereo not given)
PC-3 prostate
  TGI: > 100 µM
K-562 leukemia
  TGI: 54.5 µM
UACC-257 melanoma
  TGI: 64.7 µM
NCI-H226 lung
  TGI: 67.3 µM
NCI-H460 lung
  TGI: > 100 µM
HT29 colon
  TGI: 27.5 µM
A549 NSCLC
  TGI: > 100 µM
CCRF-CEM leukemia
  TGI: 53.7 µM

## O=S(=O)(O)c1ccc2c(N=Nc3ccc(N=Nc4ccccc4)cc3)c(O)c(S(=O)(=O)O)cc2c1
PC-3 prostate
  TGI: > 100 µM
K-562 leukemia
  TGI: > 100 µM
UACC-257 melanoma
  TGI: > 100 µM
NCI-H226 lung
  TGI: > 100 µM
NCI-H460 lung
  TGI: > 100 µM
HT29 colon
  TGI: > 100 µM
OVCAR-5 ovarian
  TGI: > 100 µM
A549 NSCLC
  TGI: > 100 µM
CCRF-CEM leukemia
  TGI: > 100 µM

## O=C1C2Cc3c(n(C(=O)c4ccccc4)c4ccccc34)CC2C(=O)N1c1ccc(Nc2ccc(N3C(=O)C4Cc5c(n(C(=O)c6ccccc6)c6ccccc56)CC4C3=O)cc2)cc1 (stereo not given)
PC-3 prostate
  TGI: > 100 µM
K-562 leukemia
  TGI: > 100 µM
UACC-257 melanoma
  TGI: > 100 µM
NCI-H226 lung
  TGI: > 100 µM
NCI-H460 lung
  TGI: > 100 µM
HT29 colon
  TGI: > 100 µM
OVCAR-5 ovarian
  TGI: > 100 µM
A549 NSCLC
  TGI: > 100 µM
CCRF-CEM leukemia
  TGI: > 100 µM

## Cc1cc(C)c2c(=O)n(CC(O)CN3CCN(CCOCCO)CC3)sc2n1 (stereo not given)
PC-3 prostate
  TGI: 40.7 µM
K-562 leukemia
  TGI: > 100 µM
UACC-257 melanoma
  TGI: 24.6 µM
NCI-H226 lung
  TGI: > 100 µM
NCI-H460 lung
  TGI: 39 µM
HT29 colon
  TGI: 39.6 µM
OVCAR-5 ovarian
  TGI: 34.8 µM
A549 NSCLC
  TGI: > 100 µM
CCRF-CEM leukemia
  TGI: > 100 µM

## CC1=C[C@@H](C)C[C@]2(C)CC[C@H](O2)[C@]23CC[C@](CO)(C[C@H](O2)[C@@H]2O[C@@](C)(CC2=O)[C@@H](O)[C@H]2CC[C@@]4(CCC[C@@H](O4)[C@H](C)C(=O)O[C@H]4C[C@H]([C@]5(O)OCC[C@H](C)[C@@H]5O)O[C@H]4C=C1)O2)O3
PC-3 prostate
  TGI: > 10 µM
K-562 leukemia
  TGI: > 10 µM
NCI-H460 lung
  TGI: > 10 µM
HT29 colon
  TGI: > 10 µM
OVCAR-5 ovarian
  TGI: > 10 µM
A549 NSCLC
  TGI: > 10 µM
CCRF-CEM leukemia
  TGI: > 9.53 µM

## Nc1nnc(CCC(=O)Nc2cc(Cl)ccc2Cl)n1N
K-562 leukemia
  TGI: > 100 µM
UACC-257 melanoma
  TGI: > 100 µM
NCI-H226 lung
  TGI: > 100 µM
NCI-H460 lung
  TGI: > 100 µM
KM20L2 colon
  TGI: > 100 µM
SNB-78 CNS
  TGI: > 100 µM
HT29 colon
  TGI: > 100 µM
OVCAR-5 ovarian
  TGI: > 100 µM
A549 NSCLC
  TGI: > 100 µM
CCRF-CEM leukemia
  TGI: > 100 µM

## Nc1cc(S(=O)(=O)O)cc2ccc(S(=O)(=O)O)cc12
PC-3 prostate
  TGI: > 100 µM
K-562 leukemia
  TGI: > 100 µM
UACC-257 melanoma
  TGI: > 100 µM
NCI-H460 lung
  TGI: > 100 µM
HT29 colon
  TGI: > 100 µM
OVCAR-5 ovarian
  TGI: > 100 µM
A549 NSCLC
  TGI: > 100 µM
CCRF-CEM leukemia
  TGI: > 100 µM

## O=C(/C=C1\N=C(c2ccccc2)N(c2nc3c(Cl)cc(Cl)cc3s2)C1=O)/C=C/c1ccccc1
PC-3 prostate
  TGI: > 100 µM
K-562 leukemia
  TGI: > 100 µM
UACC-257 melanoma
  TGI: > 100 µM
NCI-H460 lung
  TGI: > 100 µM
HT29 colon
  TGI: > 100 µM
OVCAR-5 ovarian
  TGI: > 100 µM
A549 NSCLC
  TGI: > 100 µM
CCRF-CEM leukemia
  TGI: > 100 µM

## COc1cccc(/C=N/[N-]C(N)=O)c1[O-].[Ni+2].[OH3+]
K-562 leukemia
  TGI: 2.31 µM
UACC-257 melanoma
  TGI: 1.52 µM
NCI-H226 lung
  TGI: 2.11 µM
NCI-H460 lung
  TGI: 1.65 µM
KM20L2 colon
  TGI: 2.15 µM
HT29 colon
  TGI: 2.07 µM
OVCAR-5 ovarian
  TGI: 2.55 µM
A549 NSCLC
  TGI: 2.27 µM
CCRF-CEM leukemia
  TGI: 1.48 µM
